In patent US11492385B2, “Long-acting co-agonists of the glucagon and GLP-1 receptors” (Merck Sharp & Dohme Corp., priority 2015, dated 2022):
Read-outs that look alike come from different tables or passages of the source. Starred links: 1 amine or outer side, 2 acyl side, 3 side chain; linkers in the order of their positions; H or OH if unused. Non-standard residues stand in square brackets, D forms with d. Residues, ends and D or L forms follow the SMILES beside them. Groups on a side chain read outwards from the residue. *: point of attachment. Phe(4-CH2NH2) = NCc1ccc(C[C@H](N)C(=O)O)cc1; C18 diacid = O=C(O)CCCCCCCCCCCCCCCCC(=O)*; C17 diacid = O=C(O)CCCCCCCCCCCCCCCC(=O)*; αMeW = C[C@](N)(Cc1c[nH]c2ccccc12)C(=O)O; C16 diacid = O=C(O)CCCCCCCCCCCCCCC(=O)*; γGlu = O=C(O)[C@H](CCC(=O)[*:2])N[*:1]; C14 diacid = O=C(O)CCCCCCCCCCCCC(=O)*; Met(O2) = CS(=O)(=O)CC[C@H](N)C(=O)O; Palmitoyl = CCCCCCCCCCCCCCCC(=O)*; AEEA = NCCOCCOCC(=O)O; Aib = CC(C)(N)C(=O)O

Columns and labels:
human GLP1R = molecular target: T1, human GLP1R (Homo sapiens, UniProt P43220); assay: cAMP activity assay, cells expressing human GLP1R; assay type: cell-based; settings: cAMP production, assay buffer with or without 20% human serum (not stated which)
T1 construct: expressed in transfected cells; kept under Blasticidin and Hygromycin selection
T1 sequence (P43220 24-463): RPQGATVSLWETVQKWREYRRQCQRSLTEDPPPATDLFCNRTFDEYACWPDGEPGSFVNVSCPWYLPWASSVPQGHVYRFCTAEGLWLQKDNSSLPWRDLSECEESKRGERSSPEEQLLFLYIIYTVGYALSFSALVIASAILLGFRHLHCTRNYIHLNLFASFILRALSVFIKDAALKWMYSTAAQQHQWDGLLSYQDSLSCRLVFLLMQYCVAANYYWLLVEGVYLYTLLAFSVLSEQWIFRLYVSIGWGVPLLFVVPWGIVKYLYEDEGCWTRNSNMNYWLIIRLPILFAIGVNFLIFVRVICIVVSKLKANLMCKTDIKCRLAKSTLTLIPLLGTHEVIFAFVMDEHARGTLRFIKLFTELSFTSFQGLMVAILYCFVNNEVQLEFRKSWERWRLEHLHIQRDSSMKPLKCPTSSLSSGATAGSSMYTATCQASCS
Protocol: (§1) Activity of the peptides at the Glucagon receptor (GCGR) and GLP-1 receptor (GLP1R) was measured in a cAMP activity assay. Peptides were dissolved in 100% DMSO and serially diluted to generate 10 point titrations. The peptide solutions were then transferred into 384-well assay plates (150 nL/well). […] Production of cAMP was determined using […] kits (DiscoverX) following manufacturer protocol. The plates were incubated for overnight at room temperature in the dark. Luminescence was measured using an EnVision Multilabel plate reader (Perkin Elmer). Native GLP-1 and Glucagon (Bachem) are used as control peptides. EC50 values were calculated using uses a 4 parameter logistic fit based on the Levenberg-Marquardt algorithm.

human GCGR = molecular target: T2, human GCGR (Homo sapiens, UniProt P47871); assay: cAMP activity assay, cells expressing human GCGR; assay type: cell-based; settings: for EC50: cAMP production, cells expressing human GCGR, assay buffer with or without 20% human serum (not stated which); for hGCGR/hGLP1R (hTone): ratio of human GCGR EC50 to human GLP1R EC50
T2 construct: expressed in transfected cells; kept under Blasticidin and Hygromycin selection
T2 sequence (P47871 26-477): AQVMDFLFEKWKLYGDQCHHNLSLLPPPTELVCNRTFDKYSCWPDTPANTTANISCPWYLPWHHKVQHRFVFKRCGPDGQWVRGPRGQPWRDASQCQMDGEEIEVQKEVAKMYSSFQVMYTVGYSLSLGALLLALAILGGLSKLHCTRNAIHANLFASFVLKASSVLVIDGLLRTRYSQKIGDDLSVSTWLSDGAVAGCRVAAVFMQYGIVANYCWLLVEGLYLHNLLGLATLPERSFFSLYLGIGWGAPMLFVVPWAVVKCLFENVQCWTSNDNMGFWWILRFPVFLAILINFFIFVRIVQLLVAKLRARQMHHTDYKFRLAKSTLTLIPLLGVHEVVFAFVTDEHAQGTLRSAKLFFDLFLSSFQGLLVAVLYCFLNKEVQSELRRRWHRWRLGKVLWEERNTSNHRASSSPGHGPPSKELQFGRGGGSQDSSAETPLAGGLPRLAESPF
Protocol: as §1

SMILES | EC50 (human GLP1R) [nM] | EC50 (human GCGR; read-out: GCGR EC50 human) [nM] | hGCGR/hGLP1R (hTone) (human GCGR) | EC50 (human GCGR; GCGR EC50 human) [nM]
CC(C)C[C@H](NC(=O)[C@H](Cc1ccc(O)cc1)NC(=O)[C@H](CCCCN)NC(=O)[C@H](CO)NC(=O)[C@H](Cc1ccc(O)cc1)NC(=O)[C@H](CC(=O)O)NC(=O)[C@H](CO)NC(=O)[C@@H](NC(=O)[C@H](Cc1ccccc1)NC(=O)[C@@H](NC(=O)CNC(=O)[C@H](CCC(N)=O)NC(=O)C(C)(C)NC(=O)[C@@H](N)Cc1c[nH]cn1)[C@@H](C)O)[C@@H](C)O)C(=O)N[C@@H](CC(=O)O)C(=O)N[C@@H](C)C(=O)N[C@@H](CCCNC(=N)N)C(=O)N[C@@H](C)C(=O)N[C@@H](C)C(=O)N[C@@H](CCCCNC(=O)COCCOCCNC(=O)COCCOCCNC(=O)CC[C@H](NC(=O)CCCCCCCCCCCCC(=O)O)C(=O)O)C(=O)N[C@@H](CC(=O)O)C(=O)N[C@@H](Cc1ccccc1)C(=O)N[C@H](C(=O)N[C@@H](CCC(N)=O)C(=O)N[C@@H](Cc1c[nH]c2ccccc12)C(=O)N[C@@H](CC(C)C)C(=O)N[C@@H](CCS(C)(=O)=O)C(=O)N[C@@H](CC(=O)O)C(=O)N[C@H](C(N)=O)[C@@H](C)O)C(C)C [compound 49] (H-H[Aib]QGTFTSDYSKYLDARAAK([AEEA-AEEA-γGlu-C14 diacid])DFVQWL[Met(O2)]DT-NH2) | 0.02 | 0.04 | 1.91 | –
CC(C)C[C@H](NC(=O)[C@H](Cc1ccc(O)cc1)NC(=O)[C@H](CCCCN)NC(=O)[C@H](CO)NC(=O)[C@H](Cc1ccc(O)cc1)NC(=O)[C@H](CC(=O)O)NC(=O)[C@H](CO)NC(=O)[C@@H](NC(=O)[C@H](Cc1ccccc1)NC(=O)[C@@H](NC(=O)CNC(=O)[C@H](CCC(N)=O)NC(=O)C(C)(C)NC(=O)[C@@H](N)Cc1c[nH]cn1)[C@@H](C)O)[C@@H](C)O)C(=O)N[C@@H](CC(=O)O)C(=O)N[C@@H](C)C(=O)N[C@@H](CCCNC(=N)N)C(=O)N[C@@H](C)C(=O)N[C@@H](C)C(=O)N[C@@H](CCCCNC(=O)COCCOCCNC(=O)COCCOCCNC(=O)CC[C@H](NC(=O)CCCCCCCCCCCCCCC(=O)O)C(=O)O)C(=O)N[C@@H](CC(=O)O)C(=O)N[C@@H](Cc1ccccc1)C(=O)N[C@H](C(=O)N[C@@H](CCC(N)=O)C(=O)N[C@@H](Cc1c[nH]c2ccccc12)C(=O)N[C@@H](CC(C)C)C(=O)N[C@@H](CCS(C)(=O)=O)C(=O)N[C@@H](CC(=O)O)C(=O)N[C@H](C(N)=O)[C@@H](C)O)C(C)C [compound 19] (H-H[Aib]QGTFTSDYSKYLDARAAK([AEEA-AEEA-γGlu-C16 diacid])DFVQWL[Met(O2)]DT-NH2) | 0.04 | 0.08 | 2.15 | –
CC(C)C[C@H](NC(=O)[C@H](Cc1ccc(O)cc1)NC(=O)[C@H](CCCCN)NC(=O)[C@H](CO)NC(=O)[C@H](Cc1ccc(O)cc1)NC(=O)[C@H](CC(=O)O)NC(=O)[C@H](CO)NC(=O)[C@@H](NC(=O)[C@H](Cc1ccccc1)NC(=O)[C@@H](NC(=O)CNC(=O)[C@H](CCC(N)=O)NC(=O)C(C)(C)NC(=O)[C@@H](N)Cc1c[nH]cn1)[C@@H](C)O)[C@@H](C)O)C(=O)N[C@@H](CC(=O)O)C(=O)N[C@@H](C)C(=O)N[C@@H](CCCNC(=N)N)C(=O)N[C@@H](C)C(=O)N[C@@H](C)C(=O)N[C@@H](CCCCNC(=O)COCCOCCNC(=O)COCCOCCNC(=O)CC[C@H](NC(=O)CCCCCCCCCCCCCCC(=O)O)C(=O)O)C(=O)N[C@@H](CC(=O)O)C(=O)N[C@@H](Cc1ccccc1)C(=O)N[C@H](C(=O)N[C@@H](CCC(N)=O)C(=O)N[C@@](C)(Cc1c[nH]c2ccccc12)C(=O)N[C@@H](CC(C)C)C(=O)N[C@@H](CCS(C)(=O)=O)C(=O)N[C@@H](CC(=O)O)C(=O)N[C@H](C(N)=O)[C@@H](C)O)C(C)C [compound 78] (H-H[Aib]QGTFTSDYSKYLDARAAK([AEEA-AEEA-γGlu-C16 diacid])DFVQ[αMeW]L[Met(O2)]DT-NH2) | – | – | 3 | –
CC(C)C[C@H](NC(=O)[C@H](Cc1ccc(O)cc1)NC(=O)[C@H](CCCCN)NC(=O)[C@H](CO)NC(=O)[C@H](Cc1ccc(O)cc1)NC(=O)[C@H](CC(=O)O)NC(=O)[C@H](CO)NC(=O)[C@@H](NC(=O)[C@H](Cc1ccccc1)NC(=O)[C@@H](NC(=O)CNC(=O)[C@H](CCC(N)=O)NC(=O)C(C)(C)NC(=O)[C@@H](N)Cc1c[nH]cn1)[C@@H](C)O)[C@@H](C)O)C(=O)N[C@@H](CC(=O)O)C(=O)N[C@@H](C)C(=O)N[C@@H](CCCNC(=N)N)C(=O)N[C@@H](C)C(=O)N[C@@H](C)C(=O)N[C@@H](CCCCNC(=O)COCCOCCNC(=O)COCCOCCNC(=O)CC[C@H](NC(=O)CCCCCCCCCCCCCCCC(=O)O)C(=O)O)C(=O)N[C@@H](CC(=O)O)C(=O)N[C@@H](Cc1ccccc1)C(=O)N[C@H](C(=O)N[C@@H](CCC(N)=O)C(=O)N[C@@H](Cc1c[nH]c2ccccc12)C(=O)N[C@@H](CC(C)C)C(=O)N[C@@H](CCS(C)(=O)=O)C(=O)N[C@@H](CC(=O)O)C(=O)N[C@H](C(N)=O)[C@@H](C)O)C(C)C [compound 47] (H-H[Aib]QGTFTSDYSKYLDARAAK([AEEA-AEEA-γGlu-C17 diacid])DFVQWL[Met(O2)]DT-NH2) | – | – | 1.30 | –
CCCCCCCCCCCCCCCC(=O)N[C@@H](CCC(=O)NCCOCCOCC(=O)NCCOCCOCC(=O)NCc1ccc(C[C@H](NC(=O)[C@H](CC(=O)O)NC(=O)[C@H](CO)NC(=O)[C@@H](NC(=O)[C@H](Cc2ccccc2)NC(=O)[C@@H](NC(=O)CNC(=O)[C@H](CCC(N)=O)NC(=O)C(C)(C)NC(=O)[C@@H](N)Cc2c[nH]cn2)[C@@H](C)O)[C@@H](C)O)C(=O)N[C@@H](CO)C(=O)N[C@@H](CCCCN)C(=O)N[C@@H](Cc2ccc(O)cc2)C(=O)N[C@@H](CC(C)C)C(=O)N[C@@H](CC(=O)O)C(=O)N[C@@H](C)C(=O)N[C@@H](CCCNC(=N)N)C(=O)N[C@@H](C)C(=O)N[C@@H](C)C(=O)N[C@@H](CCC(N)=O)C(=O)N[C@@H](CC(=O)O)C(=O)N[C@@H](Cc2ccccc2)C(=O)N[C@H](C(=O)N[C@@H](CCC(N)=O)C(=O)N[C@@H](Cc2c[nH]c3ccccc23)C(=O)N[C@@H](CC(C)C)C(=O)N[C@@H](CCS(C)(=O)=O)C(=O)N[C@@H](CC(=O)O)C(=O)N[C@H](C(N)=O)[C@@H](C)O)C(C)C)cc1)C(=O)O [compound 13] (H-H[Aib]QGTFTSD[Phe(4-CH2NH2)]([AEEA-AEEA-γGlu-Palmitoyl])SKYLDARAAQDFVQWL[Met(O2)]DT-NH2) | – | – | 2.19 | –
CC(C)C[C@H](NC(=O)[C@H](Cc1ccc(O)cc1)NC(=O)[C@H](CCCCN)NC(=O)[C@H](CO)NC(=O)[C@H](Cc1ccc(O)cc1)NC(=O)[C@H](CC(=O)O)NC(=O)[C@H](CO)NC(=O)[C@@H](NC(=O)[C@H](Cc1ccccc1)NC(=O)[C@@H](NC(=O)CNC(=O)[C@H](CCC(N)=O)NC(=O)[C@@H](CO)NC(=O)[C@@H](N)Cc1c[nH]cn1)[C@@H](C)O)[C@@H](C)O)C(=O)N[C@@H](CC(=O)O)C(=O)N[C@@H](C)C(=O)N[C@@H](CCCNC(=N)N)C(=O)N[C@@H](C)C(=O)N[C@@H](C)C(=O)N[C@@H](CCC(N)=O)C(=O)N[C@@H](CCCCNC(=O)COCCOCCNC(=O)COCCOCCNC(=O)CC[C@H](NC(=O)CCCCCCCCCCCCCCCCC(=O)O)C(=O)O)C(=O)N[C@@H](Cc1ccccc1)C(=O)N[C@H](C(=O)N[C@@H](CCC(N)=O)C(=O)N[C@@H](Cc1c[nH]c2ccccc12)C(=O)N[C@@H](CC(C)C)C(=O)N[C@@H](CC(C)C)C(=O)N[C@@H](CC(=O)O)C(=O)N[C@H](C(N)=O)[C@@H](C)O)C(C)C [compound 21] (H-H[dS]QGTFTSDYSKYLDARAAQK([AEEA-AEEA-γGlu-C18 diacid])FVQWLLDT-NH2) | – | – | 0.17 | –
CC(C)C[C@H](NC(=O)[C@H](CC(C)C)NC(=O)[C@H](Cc1c[nH]c2ccccc12)NC(=O)[C@H](CCC(N)=O)NC(=O)[C@@H](NC(=O)[C@H](Cc1ccccc1)NC(=O)[C@H](CC(=O)O)NC(=O)[C@H](CCC(N)=O)NC(=O)[C@H](C)NC(=O)[C@H](C)NC(=O)[C@H](CCCNC(=N)N)NC(=O)C(C)(C)NC(=O)[C@H](CC(=O)O)NC(=O)[C@H](CC(C)C)NC(=O)[C@H](Cc1ccc(O)cc1)NC(=O)[C@H](CCCCN)NC(=O)[C@H](CO)NC(=O)[C@H](Cc1ccc(CNC(=O)COCCOCCNC(=O)COCCOCCNC(=O)CC[C@H](NC(=O)CCCCCCCCCCCCCCC(=O)O)C(=O)O)cc1)NC(=O)[C@H](CC(=O)O)NC(=O)[C@H](CO)NC(=O)[C@@H](NC(=O)[C@H](Cc1ccccc1)NC(=O)[C@@H](NC(=O)CNC(=O)[C@H](CCC(N)=O)NC(=O)C(C)(C)NC(=O)[C@@H](N)Cc1c[nH]cn1)[C@@H](C)O)[C@@H](C)O)C(C)C)C(=O)N[C@@H](C)C(=O)N[C@H](C(=O)N[C@@H](CCCCNC(=O)CC[C@H](N)C(=O)O)C(N)=O)[C@@H](C)O [compound 11] (H-H[Aib]QGTFTSD[Phe(4-CH2NH2)]([AEEA-AEEA-γGlu-C16 diacid])SKYLD[Aib]RAAQDFVQWLLATK(γGlu)-NH2) | – | – | 4.15 | 1.03
